Earlier results on four molecules are cited in US20210069110A1, “NON-AQUEOUS COMPOSITION HAVING DRUG CARRIED THEREIN, AND METHOD FOR PRODUCING SAME” (Techno Guard Co. Ltd., priority 2017, published 2021).

The conditions of this data set: General Notice of Japanese Pharmacopoeia.

On to `CC(=O)O[C@@]12CO[C@@H]1C[C@H](O)[C@@]1(C)C(=O)[C@H](O)C3=C(C)[C@@H](OC(=O)[C@H](O)[C@@H](NC(=O)OC(C)(C)C)c4ccccc4)C[C@@](O)([C@@H](OC(=O)c4ccccc4)[C@H]21)C3(C)C` [Docetaxel], for which the “Water solubility of drug (Expression in Japanese Pharmacopoeia)” value (“Water solubility of drug” for short) was “Practically insoluble”. For `CCCCC[C@H](O)/C=C/[C@H]1[C@H](O)CC(=O)[C@@H]1CCCCCCC(=O)O` [Prostaglandin E1], the “Water solubility of drug” value was “Practically insoluble”.

Regarding `CO[C@H]1C(=O)[C@]2(C)[C@@H](OC)C[C@H]3OC[C@@]3(OC(C)=O)[C@H]2[C@H](OC(=O)c2ccccc2)[C@]2(O)C[C@H](OC(=O)[C@H](O)[C@@H](NC(=O)OC(C)(C)C)c3ccccc3)C(C)=C1C2(C)C` [Cabazitaxel], the “Water solubility of drug” value is “Practically insoluble”. As for `CC(=O)O[C@H]1C(=O)[C@@]2(C)[C@H]([C@H](OC(=O)c3ccccc3)[C@]3(O)C[C@H](OC(=O)[C@H](O)[C@@H](NC(=O)c4ccccc4)c4ccccc4)C(C)=C1C3(C)C)[C@]1(OC(C)=O)CO[C@@H]1C[C@@H]2O` [Paclitaxel], the “Water solubility of drug” value is “Practically insoluble”.
